Measured values taken from patent publication US10172858B2, “Combination pharmaceutical compositions and uses thereof” (Intellikine LLC, priority 2011, dated 2019).
Where two headings read alike, the source gives them in different places.

Columns and labels:
PC3 = PC3 tumor cell line proliferation assay; type: cell-based; conditions: Homo sapiens, PC-3; for EC50: Table 1; for IC50: Table 2, in vitro IC50
mTORC = mTORC (Homo sapiens (Human), UniProt P42345); assay: mTORC in vitro IC50 (Table 2); type: biochemical
PI3K α = PI3K α (Homo sapiens (Human), UniProt P42336); assay: PI3K α kinase assay; type: biochemical
PI3K δ = PI3K δ (Homo sapiens (Human), UniProt O00329); assay: PI3K δ kinase assay; type: biochemical; conditions: Table 2
PI3K γ = PI3K γ (Homo sapiens (Human), UniProt P48736); assay: PI3K γ kinase assay; type: biochemical; conditions: Table 2
Sequence of PI3K γ (P48736 whole entry, species assumed): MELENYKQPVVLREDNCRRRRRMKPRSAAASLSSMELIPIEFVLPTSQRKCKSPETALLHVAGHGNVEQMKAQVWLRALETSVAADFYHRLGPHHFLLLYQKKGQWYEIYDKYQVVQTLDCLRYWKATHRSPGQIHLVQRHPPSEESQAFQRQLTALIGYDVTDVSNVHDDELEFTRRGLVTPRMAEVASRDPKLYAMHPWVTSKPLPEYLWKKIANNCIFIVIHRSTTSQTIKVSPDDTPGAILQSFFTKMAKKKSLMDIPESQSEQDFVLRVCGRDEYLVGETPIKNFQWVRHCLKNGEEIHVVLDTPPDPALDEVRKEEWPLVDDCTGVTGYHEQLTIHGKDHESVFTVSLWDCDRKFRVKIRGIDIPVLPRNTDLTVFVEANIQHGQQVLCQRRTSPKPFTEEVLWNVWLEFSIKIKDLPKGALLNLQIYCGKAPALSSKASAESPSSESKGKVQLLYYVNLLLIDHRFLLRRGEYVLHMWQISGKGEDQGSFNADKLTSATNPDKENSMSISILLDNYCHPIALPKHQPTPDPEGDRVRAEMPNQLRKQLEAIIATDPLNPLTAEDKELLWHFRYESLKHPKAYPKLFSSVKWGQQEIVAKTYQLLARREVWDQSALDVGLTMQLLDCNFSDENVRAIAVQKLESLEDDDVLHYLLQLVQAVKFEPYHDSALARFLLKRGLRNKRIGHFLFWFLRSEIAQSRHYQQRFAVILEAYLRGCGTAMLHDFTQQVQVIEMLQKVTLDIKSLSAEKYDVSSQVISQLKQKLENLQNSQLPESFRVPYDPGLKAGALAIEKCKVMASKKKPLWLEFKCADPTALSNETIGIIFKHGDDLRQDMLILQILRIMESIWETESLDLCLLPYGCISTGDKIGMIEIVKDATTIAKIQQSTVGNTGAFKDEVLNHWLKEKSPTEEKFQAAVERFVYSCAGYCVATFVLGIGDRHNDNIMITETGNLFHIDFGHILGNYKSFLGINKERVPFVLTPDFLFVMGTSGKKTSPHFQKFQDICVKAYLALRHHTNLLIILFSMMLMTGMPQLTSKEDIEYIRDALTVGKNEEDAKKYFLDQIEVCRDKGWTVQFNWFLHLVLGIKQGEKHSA

Sequence of mTORC (P42345 1360-2549): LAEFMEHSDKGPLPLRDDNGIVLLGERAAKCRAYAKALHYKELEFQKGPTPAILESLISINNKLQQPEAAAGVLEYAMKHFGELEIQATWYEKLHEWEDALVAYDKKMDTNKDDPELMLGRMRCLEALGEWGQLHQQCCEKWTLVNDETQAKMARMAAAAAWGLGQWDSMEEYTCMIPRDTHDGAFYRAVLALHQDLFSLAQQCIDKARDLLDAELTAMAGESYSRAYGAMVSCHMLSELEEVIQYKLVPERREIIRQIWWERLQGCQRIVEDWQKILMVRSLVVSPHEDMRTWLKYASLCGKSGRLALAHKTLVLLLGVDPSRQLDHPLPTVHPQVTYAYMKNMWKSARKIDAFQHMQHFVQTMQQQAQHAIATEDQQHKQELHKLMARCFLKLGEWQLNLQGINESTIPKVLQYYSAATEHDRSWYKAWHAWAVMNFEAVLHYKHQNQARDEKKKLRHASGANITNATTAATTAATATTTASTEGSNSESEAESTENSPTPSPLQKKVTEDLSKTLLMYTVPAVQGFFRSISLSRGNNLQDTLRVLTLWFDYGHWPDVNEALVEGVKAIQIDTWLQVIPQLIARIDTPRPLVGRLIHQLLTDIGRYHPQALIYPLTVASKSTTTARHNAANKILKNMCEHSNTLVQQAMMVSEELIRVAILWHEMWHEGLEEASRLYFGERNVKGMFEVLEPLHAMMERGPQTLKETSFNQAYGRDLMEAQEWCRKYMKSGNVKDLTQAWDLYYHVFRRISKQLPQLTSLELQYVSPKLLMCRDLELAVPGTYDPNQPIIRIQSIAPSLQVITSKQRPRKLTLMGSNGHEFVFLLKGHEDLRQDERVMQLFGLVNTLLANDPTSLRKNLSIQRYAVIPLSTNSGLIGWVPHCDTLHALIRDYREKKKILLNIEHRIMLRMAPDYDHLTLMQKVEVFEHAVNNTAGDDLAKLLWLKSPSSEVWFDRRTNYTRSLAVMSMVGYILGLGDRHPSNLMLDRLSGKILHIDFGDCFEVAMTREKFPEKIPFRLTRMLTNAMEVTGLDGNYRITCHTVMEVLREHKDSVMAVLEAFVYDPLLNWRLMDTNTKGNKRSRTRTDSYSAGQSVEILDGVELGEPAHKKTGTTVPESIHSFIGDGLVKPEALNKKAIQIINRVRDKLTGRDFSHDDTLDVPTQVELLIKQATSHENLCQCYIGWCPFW
Sequence of PI3K δ (O00329 whole entry, species assumed): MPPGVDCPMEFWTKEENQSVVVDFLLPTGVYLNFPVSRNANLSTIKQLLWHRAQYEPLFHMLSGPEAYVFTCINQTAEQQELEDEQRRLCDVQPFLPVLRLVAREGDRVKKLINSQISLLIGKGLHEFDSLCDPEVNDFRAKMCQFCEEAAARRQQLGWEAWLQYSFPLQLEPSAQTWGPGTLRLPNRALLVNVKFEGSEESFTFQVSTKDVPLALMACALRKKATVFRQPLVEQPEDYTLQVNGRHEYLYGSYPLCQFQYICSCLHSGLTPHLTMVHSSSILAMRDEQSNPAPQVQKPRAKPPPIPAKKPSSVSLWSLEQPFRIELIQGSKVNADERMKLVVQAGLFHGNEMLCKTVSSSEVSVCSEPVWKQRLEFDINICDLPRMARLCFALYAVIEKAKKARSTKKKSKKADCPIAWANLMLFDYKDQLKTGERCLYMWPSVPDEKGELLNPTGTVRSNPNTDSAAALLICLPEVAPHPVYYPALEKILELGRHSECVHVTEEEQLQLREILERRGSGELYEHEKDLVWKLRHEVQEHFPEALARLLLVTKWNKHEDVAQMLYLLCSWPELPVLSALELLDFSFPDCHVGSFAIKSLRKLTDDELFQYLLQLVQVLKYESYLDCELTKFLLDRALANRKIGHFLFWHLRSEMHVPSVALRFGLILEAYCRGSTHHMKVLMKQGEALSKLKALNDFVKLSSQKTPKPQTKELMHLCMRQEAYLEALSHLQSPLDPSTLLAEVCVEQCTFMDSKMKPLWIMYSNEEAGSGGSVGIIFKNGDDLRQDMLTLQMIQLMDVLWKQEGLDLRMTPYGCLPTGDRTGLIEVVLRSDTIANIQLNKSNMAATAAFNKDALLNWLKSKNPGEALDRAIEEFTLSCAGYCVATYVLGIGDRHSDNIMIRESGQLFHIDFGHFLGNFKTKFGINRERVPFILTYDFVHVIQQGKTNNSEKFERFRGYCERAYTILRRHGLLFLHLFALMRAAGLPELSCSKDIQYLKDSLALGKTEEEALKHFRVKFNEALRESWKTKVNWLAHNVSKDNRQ
Sequence of PI3K δ (P27986 whole entry partner, species assumed): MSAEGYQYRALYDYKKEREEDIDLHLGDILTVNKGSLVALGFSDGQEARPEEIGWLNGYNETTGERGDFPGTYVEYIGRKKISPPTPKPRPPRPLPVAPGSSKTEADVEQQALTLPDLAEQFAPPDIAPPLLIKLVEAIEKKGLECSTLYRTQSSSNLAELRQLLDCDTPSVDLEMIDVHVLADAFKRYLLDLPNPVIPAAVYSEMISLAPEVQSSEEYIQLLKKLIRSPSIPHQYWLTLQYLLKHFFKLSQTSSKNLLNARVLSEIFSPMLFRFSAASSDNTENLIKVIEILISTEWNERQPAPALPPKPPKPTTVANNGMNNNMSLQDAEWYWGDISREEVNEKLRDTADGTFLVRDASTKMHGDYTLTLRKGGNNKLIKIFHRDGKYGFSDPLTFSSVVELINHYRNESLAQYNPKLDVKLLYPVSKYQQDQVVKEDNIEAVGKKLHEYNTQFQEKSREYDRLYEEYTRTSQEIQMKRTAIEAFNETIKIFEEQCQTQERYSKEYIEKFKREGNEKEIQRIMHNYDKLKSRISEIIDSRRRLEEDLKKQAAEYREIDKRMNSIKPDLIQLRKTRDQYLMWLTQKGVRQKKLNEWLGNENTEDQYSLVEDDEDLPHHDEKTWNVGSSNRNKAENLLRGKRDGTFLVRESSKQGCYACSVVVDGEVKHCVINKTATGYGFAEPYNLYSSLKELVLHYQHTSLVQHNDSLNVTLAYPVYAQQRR

Row | Structure (SMILES) | EC50 (PC3) | IC50 (PC3) | other results
1 | CC(=O)Nc1nc2cc(-c3nn(C(C)C)c4ncnc(N)c34)ccc2o1 [Compound 2] | < 1000 nM | – | –
2 | CC(C)n1nc(-c2ccc3nc(N)oc3c2)c2c(N)ncnc21 [Compound 4] | < 10000 nM | – | –
3 | COc1ccc2[nH]c(-c3nn(C(C)C)c4ncnc(N)c34)cc2c1 [Compound 5] | – | > 500 nM | –
4 | Nc1nc2cc(-c3nn(C4CCOCC4)c4ncnc(N)c34)ccc2o1 [Compound 5] | < 100 nM | – | –
5 | CC(C)n1nc(-c2cc3ccccc3n2C)c2c(N)ncnc21 [Compound 6] | – | > 500 nM | –
6 | Nc1nc2cc(-c3nn(C4CCC(N5CCOCC5)CC4)c4ncnc(N)c34)ccc2o1 (centres unmarked) [Compound 6] | < 1000 nM | – | –
7 | CC(=O)N1CCC(n2nc(-c3ccc4oc(N)nc4c3)c3c(N)ncnc32)CC1 [Compound 7] | < 10000 nM | – | –
8 | COc1cc2cc(-c3nn(C(C)C)c4ncnc(N)c34)[nH]c2cc1Cl [Compound 29] | – | – | IC50 (mTORC): > 500 nM
9 | CC(C)n1nc(-c2cc3cc(O)c(Cl)cc3[nH]2)c2c(N)ncnc21 [Compound 32] | – | > 500 nM | IC50 (PI3K α): > 500 nM; IC50 (mTORC): < 500 nM; IC50 (PI3K δ): > 500 nM; IC50 (PI3K γ): > 500 nM
10 | Nc1ncnc2c1c(-c1cc3cc(O)ccc3[nH]1)nn2CCN1CCOCC1 [Compound 33] | – | > 500 nM | IC50 (PI3K α; Table 2): > 500 nM; IC50 (mTORC): < 500 nM; IC50 (PI3K δ): > 500 nM; IC50 (PI3K γ): > 500 nM
11 | Nc1ncnc2c1c(-c1cc3cc(O)ccc3[nH]1)nn2CC(=O)N1CCOCC1 [Compound 34] | – | – | IC50 (PI3K α; Table 2): > 500 nM; IC50 (mTORC): > 500 nM; IC50 (PI3K δ): > 500 nM; IC50 (PI3K γ): > 500 nM
12 | CNC(=O)Cn1nc(-c2cc3cc(O)ccc3[nH]2)c2c(N)ncnc21 [Compound 35] | – | – | IC50 (PI3K α; Table 2): > 500 nM; IC50 (mTORC): > 500 nM; IC50 (PI3K δ): > 500 nM; IC50 (PI3K γ): > 500 nM
13 | CC(C)n1nc(-c2cc3c(O)cccc3[nH]2)c2c(N)ncnc21 [Compound 37] | – | – | IC50 (PI3K α; Table 2): < 500 nM; IC50 (mTORC): > 500 nM; IC50 (PI3K δ): < 500 nM; IC50 (PI3K γ): < 500 nM
14 | CC(C)n1nc(-c2cc3cc(O)ccc3[nH]2)c2c(N)nccc21 [Compound 45] | – | – | IC50 (mTORC): > 500 nM

Continued, in another order:

Row | EC50 (PC3) | IC50 (PC3) | Structure (SMILES) | other results
15 | – | > 500 nM | CC(C)n1nc(-c2cc3ccccc3[nH]2)c2c(N)ncnc21 [Compound 7] | –
16 | < 100 nM | – | CC(C)n1cc(-c2ccc3oc(N)nc3c2)c2c(N)ncnc21 [Compound 8] | –
17 | – | > 500 nM | COc1ccc2cc(-c3nn(C(C)C)c4ncnc(N)c34)[nH]c2c1 [Compound 8] | –
18 | – | > 500 nM | CC(C)n1nc(-c2cc3c(Cl)cccc3[nH]2)c2c(N)ncnc21 [Compound 9] | –
19 | < 100 nM | – | Nc1nc2cc(-c3cn(C4CCOCC4)c4ncnc(N)c34)ccc2o1 [Compound 9] | –
20 | > 10000 nM | – | CC(C)n1nc(-c2ccc3onc(N)c3c2)c2c(N)ncnc21 [Compound 10] | –
21 | > 10000 nM | – | CC(=O)Nc1noc2cc(-c3nn(C(C)C)c4ncnc(N)c34)ccc12 [Compound 11] | –
22 | – | < 50 nM | CC(C)n1nc(-c2cc3cccc(O)c3[nH]2)c2c(N)ncnc21 [Compound 11] | –
23 | > 10000 nM | – | CC(C)n1nc(-c2ccc3c(N)noc3c2)c2c(N)ncnc21 [Compound 12] | –
24 | – | < 50 nM | Nc1ncnc2c1c(-c1cc3cc(O)ccc3[nH]1)nn2C1CCCC1 [Compound 12] | –
25 | – | > 500 nM | COc1cc(Cl)c2[nH]c(-c3nn(C(C)C)c4ncnc(N)c34)cc2c1 [Compound 13] | –
26 | – | < 50 nM | CC(C)n1nc(-c2cc3cc(O)cc(Cl)c3[nH]2)c2c(N)ncnc21 [Compound 15] | –
27 | – | < 500 nM | CC(C)n1nc(-c2cc3cc(O)cc(F)c3[nH]2)c2c(N)ncnc21 [Compound 16] | –
28 | – | > 500 nM | CC(C)n1nc(-c2cc3cc(Cl)ccc3[nH]2)c2c(N)ncnc21 [Compound 17] | –
29 | – | > 500 nM | CC(C)n1nc(-c2cc3ccc(O)cc3[nH]2)c2c(N)ncnc21 [Compound 21] | –
30 | – | > 500 nM | CC(C)n1nc(-c2cc3ccc(C#N)cc3[nH]2)c2c(N)ncnc21 [Compound 24] | –
31 | – | > 500 nM | CC(C)n1nc(-c2cc3ccc(C(N)=O)cc3[nH]2)c2c(N)ncnc21 [Compound 25] | –
32 | – | < 500 nM | Nc1ncnc2c1c(-c1cc3cc(O)ccc3[nH]1)nn2C1CCCCC1 [Compound 26] | –
33 | – | < 500 nM | Nc1ncnc2c1c(-c1cc3cc(O)ccc3[nH]1)nn2C1CCC1 [Compound 27] | –
